In patent US20240287463A1, “INDUCIBLE TISSUE CONSTRUCTS AND USES THEREOF” (Massachusetts Institute of Technology, priority 2020, published 2024):

How the values were obtained:
iCasp9-GFP J2s = experiment: Annexin V / SYTOX apoptosis flow cytometry; format: cell-based; conditions: within the first hour after CID treatment
From the text: Inducible caspase-9 (iCasp9), which is activated by treatment with a small molecule chemical inducer of dimerization (CID; also known as rapalog, an analog of rapamycin) and leads to subsequent cell death through the intrinsic apoptosis pathway was utilized (FIG. 1A). The safety and efficacy of the iCasp9 transgene and CID have previously been shown in vitro and in vivo in animals and humans (A. Di Stasi, et al. (2011) dx.doi.org/10.1056/NEJMoa1106152; T. Gargett and M. P. Brown (2014) Front. Pharmacol. 5; K. C. Straathof, et al. (2005) Blood 105, 4247, each of which is herein incorporated by this reference). To generate inducible cells, 3T3-J2 fibroblasts (‘J2’) were transduced with lentivirus with a bidirectional expression cassette encoding iCasp9 and GFP genes (#15567 pMSCV-F-del Casp9.IRES.GFP; cloned to a lentivirus plasmid backbone with an SFFV promoter). FACS was used to enrich the infected population for the 15% highest-expression GFP+ cells. […]
After iCasp9-GFP J2 fibroblasts were exposed to CID, iCasp9 dimers were detected by staining with a caspase-9 antibody (FIG. 1C). […] To confirm that CID-triggered caspase-9 activation led to apoptosis, unfixed cells were stained with Annexin V, which binds to an early indicator of apoptosis, and SYTOX, a general marker of cell death, and analyzed by flow cytometry.

[1] = tested on: primary human hepatocytes; experiment: hepatocyte function and toxicity in 3D spheroid-laden hydrogels after fibroblast deletion; format: cell-based
From the text: Specifically, MPCC were fabricated as described previously (S. R. Khetani and S. N. Bhatia (2005) Nat. Biotechnol 26, 120; S. March et al. (2015) Nat. Protoc. 10, 2007). Briefly, collagen was adsorbed in each well of a 96 well plate (glass bottom), and then patterned using an elastomeric polydimethysiloxane mold and oxygen plasma gas ablation. Human hepatocytes were thawed and seeded (70 k/well) on the collagen islands (500 μm with 1,200 μm center-to-center spacing). Adhered hepatocytes (˜10 k/well) were allowed to spread overnight before fibroblasts were seeded for co-culture (7 k/well). Supernatant was collected from cultures every other day and stored at −20° C. Human albumin was quantified using an enzyme-linked immunosorbent assay using a sheep anti-rat albumin antibody (ELISA) (Bethyl Laboratories) and 3,3′,5,5′-tetramethylbenzidine (TMB, Thermo Fisher). Urea concentration was measured using a colorimetric (diacetylmonoxime) assay with acid and heat (Stanbio Labs). CYP3A4 activity was assessed with the luminogenic P450-GloTM CYP450 assay kit (Promega) for nonlytic assays using cultured cells. Cultures were pre-treated with 2 μM rifampin or 1:1,000 DMSO vehicle control prepared in hepatocyte maintenance media for 72 hours (daily replenishment) where indicated.
Previous work identified that phenotypic stability and longevity of primary hepatocytes cultured as 3D microtissues were transiently supported by pre-aggregation to increase homotypic cell-cell interactions, and were further enhanced upon inclusion of J2 fibroblasts (C. Y. Li et al. (2014) Tissue Eng. Part A 20, 2200). Thus, iCasp9-GFP J2 fibroblasts were incorporated into these 3D hepatic ensembles, which were fabricated by plating primary human hepatocytes and fibroblasts in microwells in order to facilitate physical cell-cell contacts, as previously described (K. Stevens et al. (2013) Nat. Commun. 4, 1847; K. R. Stevens et al. (2017) Sci. Transl. Med. 9, eaaah5505). Specifically, cryopreserved 365 human hepatocytes were thawed and immediately plated with fibroblasts in AggreWells (400 μm pyramidal microwells) and incubated overnight. Hepatic spheroids (about 150 hepatocytes per spheroid, ˜100 μm diameter) were imaged and analyzed to quantify the extent of spheroid compaction. Individual spheroids were isolated manually using Fiji, (J. Schindelin et al. (2012) Nat. Methods 9, 676). […] Resulting morphologies were traced and measured for circularity. […]
To probe the dependence of hepatocyte phenotypic stability on fibroblast co-culture in 3D, fibroblasts were deleted from spheroid-laden hydrogel cultures using CAMEO after 1 day of hepatocyte-fibroblast co-culture. Fibroblasts were robustly removed from 3D co-cultures as described in the above Examples, and detected by immunofluorescence imaging (FIG. 3I). […]

HUVECs = experiment: vascular network in HUVEC/iCasp9-HLF microfluidic devices after fibroblast removal; format: cell-based, human; conditions: iCasp9-HLFs removed after only 3 days of co-culture

Compound: CC[C@H](C(=O)N1CCCC[C@H]1C(=O)O[C@H](CCc1ccc(OC)c(OC)c1)c1cccc(OCC(=O)NCC(CNC(=O)COc2cccc([C@@H](CCc3ccc(OC)c(OC)c3)OC(=O)[C@@H]3CCCCN3C(=O)[C@@H](CC)c3cc(OC)c(OC)c(OC)c3)c2)CN(C)C)c1)c1cc(OC)c(OC)c(OC)c1 [CID, AP20187]
- proportion of iCasp9-GFP J2s undergoing apoptosis (iCasp9-GFP J2s): increased in a time-dependent manner
- hepatocyte function ([1]; 50 nM CID after 3 or 7 days of co-culture): negatively impacted
- hepatocyte phenotype by albumin secretion rate ([1]; CID after 1 day of co-culture, followed up to 3 weeks): stable phenotype
- hepatocyte function, CID pre- versus post-encapsulation in fibrin ([1]; data not shown): No difference
- toxicity to co-cultured hepatocytes ([1]; spheroid-laden hydrogel cultures, data not shown): without any apparent toxicity
- self-assembly of HUVECs at day 7 (HUVECs): able to self-assemble into perfusable vasculature
